Experimental data from patent US20250136934A1, “PRODUCTION OF INDUCED MIDBRAIN DOPAMINERGIC PROGENITOR CELLS FROM PLURIPOTENT STEM CELLS” (NUWACELL BIOTECHNOLOGIES CO., LTD., priority 2023, published 2025).

Tests used:
[1] = system: OTX2+ imDAP cells; assay: FACS analysis of OTX2 expression of imDAP cells derived from hiPSCs; assay type: cell-based, human; conditions: 4-step protocol, Day 16
Method: • 1. Individualize and collect cells by either Accutase or TrypLE treatment. • 2. Wash cells with 1 ml PBS and pellet cells at 250×g for […]. • 3. Remove supernatant, add ˜200 μl of 4% PFA, mix and fix for 10 min at RT. • 4. Pellet cells at 350×g for 5 min. • 5. Wash cells by 1 ml of FACS buffer and pellet cells at 350×g for 5 min. • 6. Remove supernatant, add 200 μl/tube of FACS buffer/0.1% Triton X, mix for 10 min at RT. • 7. Wash cells by 1 ml of FACS buffer and pellet cells at 350×g for 5 min. • 8. Remove supernatant, add 200 μl/tube of primary antibody diluted in FACS buffer, mix gently, and incubate for 30 min at RT. • 9. Wash cells by 1 ml of FACS buffer and pellet cells at 350×g for 5 min. • 10. Remove supernatant, and add 200 μl of secondary antibody diluted in FACS buffer, mix gently, and incubate for 30 min at RT. • 11. Wash cells by 1 ml of FACS buffer and pellet cells at 300×g for 5 min. • 12. Remove supernatant, add 200 μl of FACS buffer, and run samples on the flow cytometer.
On Day-1, EB formation (Stage 1) was carried out by dissociating hiPSCs (Nuwacell) to form a single-cell suspension and resuspending it in Epic medium (Nuwacell, #RP01001) containing 10 μM Blebbistatin (MCE, #HY-13441) in T25 flasks on a belly dancer and culturing the cells overnight. On Day 0, ventral midbrain floor plate differentiation (Stage 2) was initiated by changing the medium to a Stage 2-1 differentiation medium containing DMEM: F12/B27 (plus Vitamin A) (98:2, v/v) as basal medium and supplemented with 0.5 μM LDN193189, 10 μM SB431542, 500 ng/mL SHH C24II, 2 μM Purmorphamine, 10 nM SAG and 1.2 μM CHIR99021 and culturing the cells for 3 Days. […] The cells of each group were stained with OTX2-FITC antibody (Miltenyi, #130-121-195), the percentage of OTX2+ imDAP cells were analyzed by flow cytometry (FIG. 8A). The cells obtained by Boost-CHIR treatment from D4 to D6, D7 or D8, or from D5 to D7 or D8 were analyzed by qRT-PCR for dorsal midbrain marker PAX6 (FIG. 8B).

[2] = system: PAX6; assay: qRT-PCR analysis of dorsal midbrain marker PAX6 in imDAP cells; assay type: cell-based, human; conditions: exposure to Boost-CHIR 7.5 μM from Day 4 compared to from Day 5
Method: (1) qRT-PCR • 1. For qRT-PCR analysis of mRNA gene expression, RNA should be harvested from at least 2×10^6 cells. • 2. Harvest cells, add 350 μl of buffer RLT+1% (vol/vol) β-mercaptoethanol to the well, transfer the lysate to a 1.5 ml tube, and put it immediately on ice. • 3. Perform RNA extraction using the Tiangen Kit (DP430) and following the manufacturer's protocol ‘Purification of total RNA from animal and human cells’. • 4. When the RNA extraction was completed, determine the RNA concentration using a Nanodrop instrument. • 5. Perform the first-strand cDNA synthesis reaction with 1 μg of RNA using the HiScript™ II Q RT SuperMIX for qPCR (+gDNA wiper) Kit (Vazyme, #R223-01) for RT-qPCR. Follow the manufacturer's ‘First-Strand cDNA Synthesis’ protocol. This reaction would yield a 20 μl product. • 6. Dilute 10 μl cDNA product in 80 μl of nuclease-free water. • 7. […] In the analysis, the expression level of gene was determined by using a sample of undifferentiated hPSCs as control. • 8. Analyze the samples by running a quantitative PCR on the LightCycler 480 instrument using a 40x cycle two-step protocol with a 60° C., 60 sec annealing/elongation step and a 95° C., 30 sec denaturation step. […]

## Cc1cnc(-c2cnc(NCCNc3ccc(C#N)cn3)nc2-c2ccc(Cl)cc2Cl)[nH]1 [CHIR, CHIR99021]
[1]; Boost-CHIR 7.5 μM from Day 4 to Day 6 (Stage 2-2)
  percentage of cells positive for OTX2: 75.29%
[1]; Boost-CHIR 7.5 μM from Day 4 to Day 7 (Stage 2-2)
  percentage of cells positive for OTX2: 71.92%
[1]; Boost-CHIR 7.5 μM from Day 4 to Day 8 (Stage 2-2)
  percentage of cells positive for OTX2: 79.83%
[2]
  expression of PAX6: lower
